# Source: US11739064B2, “HDAC inhibitors and therapeutic methods using the same” (THE BOARD OF TRUSTEES OF THE UNIVERSITY OF ILLINOIS, priority 2015, dated 2023)
# What was measured:
# [1] = target: T1, HDAC10 (Homo sapiens, UniProt Q969S8); test: In vitro HDAC inhibition assay, HDAC10; format: biochemical; details: NI = No inhibition at a concentration of 50 pM (footnote b); read-out: HDAC isoform IC50, HDAC10
# T1 sequence (Q969S8 1-669): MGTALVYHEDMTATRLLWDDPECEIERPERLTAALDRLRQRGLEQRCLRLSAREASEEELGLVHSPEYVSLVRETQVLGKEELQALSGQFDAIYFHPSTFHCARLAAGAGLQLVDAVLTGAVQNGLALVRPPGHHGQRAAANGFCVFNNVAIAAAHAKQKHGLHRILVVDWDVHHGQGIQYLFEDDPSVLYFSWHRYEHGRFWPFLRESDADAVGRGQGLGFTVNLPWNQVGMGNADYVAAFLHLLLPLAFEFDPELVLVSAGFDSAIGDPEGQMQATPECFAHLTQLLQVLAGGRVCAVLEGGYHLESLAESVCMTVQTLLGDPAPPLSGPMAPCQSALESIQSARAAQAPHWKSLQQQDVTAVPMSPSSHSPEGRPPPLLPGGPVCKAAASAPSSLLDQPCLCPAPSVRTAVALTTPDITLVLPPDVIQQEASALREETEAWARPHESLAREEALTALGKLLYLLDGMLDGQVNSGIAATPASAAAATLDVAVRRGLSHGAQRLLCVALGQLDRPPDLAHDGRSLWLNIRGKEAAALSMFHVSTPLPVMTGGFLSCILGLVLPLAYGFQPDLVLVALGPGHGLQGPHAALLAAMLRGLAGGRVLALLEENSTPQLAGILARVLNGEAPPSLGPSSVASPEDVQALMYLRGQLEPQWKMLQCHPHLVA
# [2] = target: T2, Human HDAC6 (Homo sapiens, UniProt Q9UBN7); test: In vitro HDAC inhibition assay, HDAC6; format: biochemical; details: read-out: HDAC isoform IC50, HDAC6
# T2 construct: Full length with N-terminal GST tag, MW=159 kDa; GST (N); host or cells: baculovirus expression system, Sf9 cells
# T2 sequence (Q9UBN7 1-1215): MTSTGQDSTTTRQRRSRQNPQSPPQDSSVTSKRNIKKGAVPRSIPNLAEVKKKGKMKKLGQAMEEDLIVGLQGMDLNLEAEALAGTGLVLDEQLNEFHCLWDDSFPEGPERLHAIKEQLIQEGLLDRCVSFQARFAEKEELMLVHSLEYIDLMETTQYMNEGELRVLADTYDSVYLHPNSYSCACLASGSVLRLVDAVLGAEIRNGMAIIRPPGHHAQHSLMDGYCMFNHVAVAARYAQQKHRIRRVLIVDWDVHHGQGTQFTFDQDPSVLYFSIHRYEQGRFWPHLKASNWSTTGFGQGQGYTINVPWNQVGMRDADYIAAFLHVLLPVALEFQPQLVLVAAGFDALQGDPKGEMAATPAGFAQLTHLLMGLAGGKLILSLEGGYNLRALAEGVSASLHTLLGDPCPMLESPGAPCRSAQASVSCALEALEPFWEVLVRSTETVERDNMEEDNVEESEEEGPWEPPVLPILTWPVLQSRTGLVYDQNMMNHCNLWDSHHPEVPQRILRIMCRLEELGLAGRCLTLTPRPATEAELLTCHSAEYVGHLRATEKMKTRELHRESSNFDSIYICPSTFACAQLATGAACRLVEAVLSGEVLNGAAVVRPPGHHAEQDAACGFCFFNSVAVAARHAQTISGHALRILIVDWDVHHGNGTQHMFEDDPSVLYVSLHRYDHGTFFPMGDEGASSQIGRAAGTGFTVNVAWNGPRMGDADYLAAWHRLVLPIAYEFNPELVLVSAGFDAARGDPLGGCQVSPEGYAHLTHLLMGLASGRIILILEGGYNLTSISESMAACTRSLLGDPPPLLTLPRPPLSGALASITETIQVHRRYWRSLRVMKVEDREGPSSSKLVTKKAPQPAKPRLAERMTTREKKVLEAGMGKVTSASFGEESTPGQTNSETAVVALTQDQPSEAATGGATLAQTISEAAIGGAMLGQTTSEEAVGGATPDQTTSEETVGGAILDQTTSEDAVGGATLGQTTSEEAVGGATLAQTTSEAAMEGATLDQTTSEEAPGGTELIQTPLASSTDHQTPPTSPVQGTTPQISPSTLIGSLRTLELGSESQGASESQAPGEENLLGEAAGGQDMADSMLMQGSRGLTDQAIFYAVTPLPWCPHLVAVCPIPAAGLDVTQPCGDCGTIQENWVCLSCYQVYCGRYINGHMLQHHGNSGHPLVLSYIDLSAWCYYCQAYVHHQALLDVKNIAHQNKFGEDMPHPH
# [3] = tested on: PANC1 cells; test: Cell cycle analysis; format: cell-based; details: FIG. 1B, accumulation in the G2/M phase
# Description: This finding is consistent with cell cycle data, which indicate that treatment of pancreatic cancer cells with a present HDACIs results in an accumulation of cells in the G2/M phase of the cell cycle.
# [4] = tested on: acetylated alpha-tubulin; test: Accumulation of acetylated alpha-tubulin in pancreatic cancer cells; format: cell-based; details: FIG. 1A
# Description: Cell cycle and inhibition of alpha-tubulin deacetylation.
# [5] = tested on: BxPC3; test: In vitro growth inhibition (GI), MTS cell proliferation assay (Table 5), BxPC3; format: cell-based; details: Homo sapiens, BXPC-3, 72 hours post-treatment
# [6] = tested on: PANC1 cells; test: Scratch-wound cell migration assay; format: cell-based; parameters: key to Inhibition of cell migration, 24 h / Inhibition of cell migration, 48 h: Level of inhibition (high to low): +++, ++ or +; Level of inhibition (high to low): +++, ++ or +; Level of inhibition (high to low): +++, ++ or +; no inhibition: −; details: for Inhibition of cell migration, 24 h: PANC1, 24 h post wounding; for Inhibition of cell migration, 48 h: PANC1, 48 h post wounding
# Procedure: FIG. 2 contains photographs of PANC1 cells treated with present compounds 9 and 6 taken 24 and 48 hours (post wounding) after a scratch was made through a confluent layer of cells; and
# PANC1 Cell migration and effect on T and NK Cells. The effect of HDAC6 inhibition on cell migration and cellular cytotoxicity was evaluated. […] Thus, these HDAC6-selective inhibitors could function well to block metastasis. However, in contrast to the effect observed on cell migration, none of the compounds tested affected CD8+ T cell or natural killer (NK) cell-mediated cytotoxicity, despite the ability of the compounds to substantially increase the levels of acetyl-tubulin in these cell lines.
# [7] = target: HDAC2 (Homo sapiens, UniProt Q92769); test: In vitro HDAC inhibition assay, HDAC2; format: biochemical; details: NI = No inhibition at a concentration of 50 pM (footnote b); read-out: HDAC isoform IC50, HDAC2
# [8] = target: Human HDAC1 (Homo sapiens, UniProt Q13547); test: In vitro HDAC inhibition assay, HDAC1; details: read-out: HDAC isoform IC50, HDAC1; NI = No inhibition at a concentration of 50 pM (footnote b)
# [9] = target: HDAC3/NcoR2 complex (Homo sapiens, UniProt O15379); test: In vitro HDAC inhibition assay, HDAC3; format: biochemical; details: NI = No inhibition at a concentration of 50 pM (footnote b); read-out: HDAC isoform IC50, HDAC3
# [10] = tested on: L3.6pl; test: In vitro growth inhibition (GI), MTS cell proliferation assay (Table 5), L3.6pl; format: cell-based; details: Homo sapiens, 72 hours post-treatment
# [11] = tested on: L3.6pl pancreatic cancer cells; test: Apoptosis by Hoechst staining and PARP cleavage; format: cell-based; details: 10 μM, 24 hours after the initiation of treatment
# Procedure: FIG. 3 contains photographs and Western immunoblots showing that HDAC inhibitors of present invention induce apoptosis on L3.6p1 pancreatic cancer cells. L3.6p1 pancreatic cancer cells were treated with 10 μM of compound 1, 2 or 4 for 24 hrs as indicated. Cells were collected and processed to Hoechst staining (upper panel) and cell lysates were prepared for Western immunoblotting (lower panel). 50 μg of proteins were separated by SDS-PAGE, transferred to PVDF membrane, and immunoblotted as indicated.
# [12] = tested on: BxPC-3; test: In vitro growth inhibition of pancreatic cancer cell lines (Table 3), BxPC-3; format: cell-based; details: Homo sapiens, 72 hours post-treatment, cell viability
# Procedure: (§1) In Vitro growth inhibition of pancreatic cancer cell lines. Four of the present HDACIs were analyzed in the [3-(4,5-dimethylthiazol-2-yl)]-2,5-diphenyltetrazolium bromide (MTT) assay in four pancreatic cancer cell lines (Table 3).
# [13] = tested on: PANC1; test: In vitro growth inhibition of pancreatic cancer cell lines (Table 3), PANC1; format: cell-based; details: Homo sapiens, PANC-1; 72 hours post-treatment, cell viability
# Procedure: as §1
# [14] = tested on: Mia PaCa-2; test: In vitro growth inhibition of pancreatic cancer cell lines (Table 3), Mia PaCa-2; format: cell-based; details: Homo sapiens, 72 hours post-treatment, cell viability
# Procedure: as §1
# [15] = tested on: Panc 04.03; test: In vitro growth inhibition of pancreatic cancer cell lines (Table 3), Panc 04.03; format: cell-based; details: Homo sapiens, 72 hours post-treatment, cell viability
# Procedure: as §1
# Sequence of HDAC2 (Q92769 whole entry, canonical isoform): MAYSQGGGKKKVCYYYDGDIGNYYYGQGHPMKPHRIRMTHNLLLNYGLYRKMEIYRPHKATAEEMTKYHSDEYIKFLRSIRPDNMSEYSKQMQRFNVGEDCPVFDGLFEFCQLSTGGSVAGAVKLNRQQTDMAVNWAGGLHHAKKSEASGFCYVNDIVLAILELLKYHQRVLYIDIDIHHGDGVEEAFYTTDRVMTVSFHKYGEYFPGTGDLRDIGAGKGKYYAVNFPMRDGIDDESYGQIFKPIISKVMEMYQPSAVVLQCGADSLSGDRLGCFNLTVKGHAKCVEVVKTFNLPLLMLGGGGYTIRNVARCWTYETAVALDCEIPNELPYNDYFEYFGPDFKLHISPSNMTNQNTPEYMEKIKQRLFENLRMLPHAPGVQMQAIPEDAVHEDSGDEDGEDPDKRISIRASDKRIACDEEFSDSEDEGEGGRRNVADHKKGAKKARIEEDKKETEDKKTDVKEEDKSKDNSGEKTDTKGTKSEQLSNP
# Sequence of Human HDAC1 (Q13547 whole entry, canonical isoform): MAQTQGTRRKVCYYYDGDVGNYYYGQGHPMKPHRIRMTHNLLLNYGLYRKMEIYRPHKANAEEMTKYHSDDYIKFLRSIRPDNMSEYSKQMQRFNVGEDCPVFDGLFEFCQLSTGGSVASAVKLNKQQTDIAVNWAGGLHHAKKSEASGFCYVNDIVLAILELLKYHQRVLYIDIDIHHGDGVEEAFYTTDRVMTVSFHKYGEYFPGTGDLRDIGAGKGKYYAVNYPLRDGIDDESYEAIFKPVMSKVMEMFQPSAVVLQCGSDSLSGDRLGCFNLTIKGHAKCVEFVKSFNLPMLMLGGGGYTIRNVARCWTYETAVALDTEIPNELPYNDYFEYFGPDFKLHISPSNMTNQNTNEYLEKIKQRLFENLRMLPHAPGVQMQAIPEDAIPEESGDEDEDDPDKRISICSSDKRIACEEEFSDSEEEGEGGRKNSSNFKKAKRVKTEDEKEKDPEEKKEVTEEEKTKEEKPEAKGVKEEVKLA
# Sequence of HDAC3/NcoR2 complex (O15379 whole entry, canonical isoform): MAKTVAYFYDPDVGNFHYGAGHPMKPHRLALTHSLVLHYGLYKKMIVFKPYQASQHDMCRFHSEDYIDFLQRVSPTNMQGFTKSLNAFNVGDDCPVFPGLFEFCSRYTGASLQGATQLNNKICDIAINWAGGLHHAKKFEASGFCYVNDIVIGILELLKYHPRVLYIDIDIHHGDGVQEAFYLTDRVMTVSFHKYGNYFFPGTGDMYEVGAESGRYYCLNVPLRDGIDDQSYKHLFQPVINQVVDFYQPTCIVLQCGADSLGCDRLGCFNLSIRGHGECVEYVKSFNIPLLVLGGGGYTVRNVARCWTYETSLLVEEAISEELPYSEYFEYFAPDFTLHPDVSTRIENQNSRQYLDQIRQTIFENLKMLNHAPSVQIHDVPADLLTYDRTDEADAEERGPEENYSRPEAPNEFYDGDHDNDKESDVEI
# Sequence of HDAC3/NcoR2 complex (Q9Y618 395-489 partner limits assumed): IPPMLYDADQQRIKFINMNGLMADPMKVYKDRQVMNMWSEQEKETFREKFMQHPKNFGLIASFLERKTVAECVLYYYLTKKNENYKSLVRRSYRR
Structure (SMILES),IC50 [1] [nM],IC50 [2] [nM],Cell cycle arrest [3],Accumulation of acetylated alpha-tubulin [4],GI50 [5] [nM],"Inhibition of cell migration, 24 h [6]","Inhibition of cell migration, 48 h [6]",IC50 [7] [nM],IC50 [8] [nM],IC50 [9] [nM],GI50 [10] [nM],Effect on PANC1 cell migration ([6]; compared to diluent-treated control cells),Induction of apoptosis (Hoechst staining and PARP cleavage) [11],IC50 [12] [nM],IC50 [13] [nM],IC50 [14] [nM],IC50 [15] [nM]
"CC(C)(C)OC(=O)Nc1cccc(-c2cc(C(=O)NCc3ccc(C(=O)NO)cc3)no2)c1 [Compound 14, {3-[3-(4-Hydroxycarbamoyl-benzylcarbamoyl)-isoxazol-5-yl]-phenyl}-carbamic acid tert-butyl ester]",2730,0.64,cell cycle arrest,accumulation of acetylated alpha-tubulin,7800,−,−,1380,444,789,> 50000,,,,,,
O=C(Nc1cccc(-c2cc(C(=O)NCCc3cc(C(=O)NO)no3)no2)c1)c1ccccc1 [Compound 12],4630,4.4,,accumulation of acetylated alpha-tubulin,> 50000,−,−,10400,2930,7050,> 50000,,,,,,
"Nc1cccc(-c2cc(C(=O)NCCc3cc(C(=O)NO)no3)no2)c1 [Compound 9, 5-(2-{[5-(3-Amino-phenyl)-isoxazole-3-carbonyl]-amino}-ethyl)-isoxazole-3-carboxylic acid hydroxyamide]",5290,16.8,,accumulation of acetylated alpha-tubulin,12000,+,−,2360,6680,1770,3300,partial effect,,,,,
"O=C(NO)c1ccc(CNC(=O)c2cc(Cn3c4ccccc4c4ccccc43)on2)cc1 [Compound 18, 5-Carbazol-9-ylmethyl-isoxazole-3-carboxylic acid 4-hydroxycarbamoyl-benzylamide]",22200,0.6,cell cycle arrest,accumulation of acetylated alpha-tubulin,2400,+,−,1370,495,479,1300,,,,,,
"O=C(CCc1cc(C(=O)NO)no1)Nc1nc(-c2ccccc2)cs1 [Compound 1, 5-[2-(4-Phenyl-thiazol-2-ylcarbamoyl)-ethyl]-isoxazole-3-carboxylic acid hydroxyl amide]",407,31,,,1500,,,1140,307,320,1300,,effectively induced apoptosis,1000,,,
"O=C(CCCc1cc(C(=O)NO)no1)Nc1nc(-c2ccccc2)cs1 [Compound 2, 5-[3-(4-Phenyl-thiazol-2-ylcarbamoyl)-propyl]-isoxazole-3-carboxylic acid hydroxyamide]",854,81.8,,,2300,,,1220,351,934,700,,effectively induced apoptosis,20800,2500,1300,48400
"CC(C)(C)OC(=O)Nc1ccc(-c2cc(C(=O)NCc3ccc(C(=O)NO)cc3)no2)cc1 [Compound 15, {4-[3-(4-Hydroxycarbamoyl-benzylcarbamoyl)-isoxazol-5-yl]-phenyl}-carbamic acid tert-butyl ester]",3160,0.33,cell cycle arrest,accumulation of acetylated alpha-tubulin,8100,,,1900,436,135,2000,,,,,,
O=C(NO)c1cc(CCNC(=O)c2cc(-c3cccc(NC(=O)C4CCCCC4)c3)on2)on1 [Compound 11],,6.7,,accumulation of acetylated alpha-tubulin,> 50000,+,−,,,,> 50000,,,,,,
